Like-named read-outs stand apart in the source and are kept apart here. Starred links: 1 amine or outer side, 2 acyl side, 3 side chain; linkers in the order of their positions; H or OH if unused. Positions of bridges follow the written chain, without caps; N, C: chain ends. Non-standard residues stand in square brackets, D forms with d. Residues, ends and D or L forms follow the SMILES beside them. ξ: configuration not given here. X2 = CCOc1ccc(-c2[nH]c3ccccc3c2C[C@H](N[*:1])C(=O)[*:2])cc1; Trp(7-Me) = Cc1cccc2c(C[C@H](N)C(=O)O)c[nH]c12; X1 = C[C@@H]1C[C@H](C(=O)[*:2])N([*:1])C1; Phe(3-F) = N[C@@H](Cc1cccc(F)c1)C(=O)O; Pro(4,4-F2) = O=C(O)[C@@H]1CC(F)(F)CN1; Bta = N[C@@H](Cc1csc2ccccc12)C(=O)O; Hyp = O=C(O)[C@@H]1C[C@@H](O)CN1; NMeF = CN[C@@H](Cc1ccccc1)C(=O)O; NMehSer = CN[C@@H](CCO)C(=O)O; NMeNle = CCCC[C@H](NC)C(=O)O; NMeS = CN[C@@H](CO)C(=O)O; ξR = N=C(N)NCCCC(N)C(=O)O; NMeA = CN[C@@H](C)C(=O)O; Dab = NCC[C@H](N)C(=O)O; ξC = NC(CS)C(=O)O; Sar = CNCC(=O)O
Assays:
[1] = molecular target: T1, LK35.2-hPD-L1 cells / PE-labeled PD-1-Ig (Homo sapiens, UniProt Q9NZQ7); assay: LK35.2-hPD-L1 cell binding high-content screening assay; assay type: cell-based; conditions: cluster symbol, read-out: CBA IC50 cluster
T1 construct: expressed in transfected cells; host or cells: LK35.2 mouse B cell line
T1 sequence (Q9NZQ7 19-290): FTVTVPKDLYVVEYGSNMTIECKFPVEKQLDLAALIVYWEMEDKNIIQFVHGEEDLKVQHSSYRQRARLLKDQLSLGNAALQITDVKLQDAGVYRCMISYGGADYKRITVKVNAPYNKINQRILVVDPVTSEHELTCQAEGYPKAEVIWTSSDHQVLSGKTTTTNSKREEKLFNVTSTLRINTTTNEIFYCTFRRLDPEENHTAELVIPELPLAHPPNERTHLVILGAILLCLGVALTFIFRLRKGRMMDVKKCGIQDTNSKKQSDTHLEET
Outline: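 Using overnight-cultured LK35.2-hPD-L1 mouse B cells, compound was co-incubated with phycoerythrin-tagged human PD-1-Ig (final 1 nM) at 37 °C for one hour. Unbound label was removed by triple dPBS washing prior to high-content image acquisition and analysis.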

Human PD-L1/PD-1 = molecular target: T2, Human PD-L1/PD-1 (Homo sapiens, UniProt Q9NZQ7); assay: HTRF PD-1-Ig/PD-L1-His binding assay (human PD-L1); conditions: cluster symbol; read-out: HTRF IC50 cluster
T2 construct: made in house; host or cells: HEK293T
T2 sequence (Q9NZQ7 with tags, fused parts or gaps): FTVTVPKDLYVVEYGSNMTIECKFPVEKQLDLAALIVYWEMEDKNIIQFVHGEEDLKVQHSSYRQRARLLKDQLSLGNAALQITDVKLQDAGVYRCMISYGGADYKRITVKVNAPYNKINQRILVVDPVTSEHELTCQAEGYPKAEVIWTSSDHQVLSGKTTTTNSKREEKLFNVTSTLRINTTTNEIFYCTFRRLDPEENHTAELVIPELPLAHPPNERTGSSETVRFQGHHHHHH
Outline: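 Ig- and His-fused extracellular PD-1/PD-L1 binding in BSA/Tween-20 dPBS. HTRF with Eu anti-Ig (1 nM final) and APC anti-His (20 nM final).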

[2] = cell binding assay, cell line not given
[3] = cell line of CBA not given (LK35.2-hPD-L1 or 293T-hPD-L1)

Row | SMILES | IC50 [1, 2] [nM] | IC50 (Human PD-L1/PD-1) [nM] | IC50 [1, 3] [nM]
1 | CCCC[C@H]1C(=O)N(C)[C@@H](CCCC)C(=O)N[C@@H](CCCNC(=N)N)C(=O)NC(C(=O)NCC(N)=O)CSCC(=O)N[C@@H](Cc2ccc(O)cc2)C(=O)N(C)[C@@H](C)C(=O)N[C@@H](CC(N)=O)C(=O)N2CCC[C@H]2C(=O)N[C@@H](CC(N)=O)C(=O)N[C@@H](CC(C)C)C(=O)N2C[C@H](O)C[C@H]2C(=O)N[C@@H](Cc2c[nH]c3ccccc23)C(=O)N[C@@H](CO)C(=O)N[C@@H](Cc2csc3ccccc23)C(=O)N1C (stereo partly shown) [Example 9062] ({CH2CO}-Y[NMeA]NPNL[Hyp]WS[Bta][NMeNle][NMeNle]R[ξC]G-NH2; thioether N-14) | 0.158 to 4.71 | 0.385 to 6.74 | 
2 | CCCC[C@H]1C(=O)N(C)[C@@H](CCCC)C(=O)N[C@@H](CCCNC(=N)N)C(=O)NC(C(=O)NCC(N)=O)CSCC(=O)N[C@@H](Cc2ccc(O)cc2)C(=O)N(C)[C@@H](C)C(=O)N[C@@H](CC(N)=O)C(=O)N2CCC[C@H]2C(=O)N[C@@H](Cc2cnc[nH]2)C(=O)N[C@@H](CC(N)=O)C(=O)N2C[C@H](O)C[C@H]2C(=O)N[C@@H](Cc2c[nH]c3ccccc23)C(=O)N[C@@H](CO)C(=O)N[C@@H](Cc2csc3ccccc23)C(=O)N1C (stereo partly shown) [Example 9066] ({CH2CO}-Y[NMeA]NPHN[Hyp]WS[Bta][NMeNle][NMeNle]R[ξC]G-NH2; thioether N-14) | 0.158 to 4.71 | 0.385 to 6.74 | 
3 | CCCC[C@H]1C(=O)N(C)CC(=O)N[C@@H](CC(=O)O)C(=O)N[C@@H](C(C)C)C(=O)N(C)[C@@H](Cc2ccccc2)C(=O)N[C@@H](Cc2ccc(O)cc2)C(=O)N2C[C@H](C)C[C@@H]2C(=O)N[C@@H](Cc2c[nH]c3ccccc23)C(=O)N[C@@H](Cc2ccc(O)cc2)C(=O)N[C@@H](CC(C)C)C(=O)N[C@H](C(=O)NCC(N)=O)CSCC(=O)N[C@@H](Cc2ccccc2)C(=O)N(C)[C@@H](Cc2ccccc2)C(=O)N1C [Example 3578] ({CH2CO}-F[NMeF][NMeNle][Sar]DV[NMeF]Y[X1]WYLCG-NH2; thioether N-13) | 0.158 to 4.71 | 0.385 to 6.74 | 
4 | CCCC[C@H]1C(=O)N(C)[C@@H](CCCC)C(=O)NC(CCCNC(=N)N)C(=O)N[C@H](C(=O)NCC(N)=O)CSCC(=O)N[C@@H](Cc2ccc(O)cc2)C(=O)N(C)[C@@H](C)C(=O)N[C@@H](CC(N)=O)C(=O)N2CCC[C@H]2C(=O)N[C@@H](CCN)C(=O)N[C@@H](CC(C)C)C(=O)N2C[C@H](O)C[C@H]2C(=O)N[C@@H](Cc2c[nH]c3ccccc23)C(=O)N[C@@H](CO)C(=O)N[C@@H](Cc2c(-c3ccc(OCC)cc3)[nH]c3ccccc23)C(=O)N1C (stereo partly shown) [Example 7010] ({CH2CO}-Y[NMeA]NP[Dab]L[Hyp]WS[X2][NMeNle][NMeNle][ξR]CG-NH2; thioether N-14) | 4.78 to 72.9 | 0.385 to 6.74 | 
5 | CCCC[C@H]1C(=O)N(C)[C@@H](CCCC)C(=O)N[C@@H](C)C(=O)N[C@H](C(=O)NCC(N)=O)CSCC(=O)N[C@@H](Cc2ccc(O)cc2)C(=O)N(C)[C@@H](C)C(=O)N[C@@H](CC(N)=O)C(=O)N2CCC[C@H]2C(=O)N[C@@H](Cc2cnc[nH]2)C(=O)N[C@@H](CCC(=O)O)C(=O)N2C[C@H](O)C[C@H]2C(=O)N[C@@H](Cc2c[nH]c3ccccc23)C(=O)N[C@@H](CCN)C(=O)N[C@@H](Cc2c[nH]c3ccccc23)C(=O)N1C [Example 5036] ({CH2CO}-Y[NMeA]NPHE[Hyp]W[Dab]W[NMeNle][NMeNle]ACG-NH2; thioether N-14) | 0.158 to 4.71 | 0.385 to 6.74 | 
6 | CCCC[C@H]1C(=O)N(C)[C@@H](CCOC)C(=O)N[C@@H](CCCNC(=N)N)C(=O)NC(C(=O)NCC(N)=O)CSCC(=O)N[C@@H](Cc2ccc(O)cc2)C(=O)N(C)[C@@H](C)C(=O)N[C@@H](CC(=O)O)C(=O)N2CCC[C@H]2C(=O)N[C@@H](Cc2cnc[nH]2)C(=O)N[C@@H](CC(C)C)C(=O)N2CCC[C@H]2C(=O)N[C@@H](Cc2c[nH]c3ccccc23)C(=O)N[C@@H](CO)C(=O)N[C@@H](Cc2csc3ccccc23)C(=O)N1C (stereo partly shown) [Example 9008] ({CH2CO}-Y[NMeA]DPHLPWS[Bta][NMeNle][NMehSer](Me)R[ξC]G-NH2; thioether N-14) | 0.158 to 4.71 | 0.385 to 6.74 | 
7 | CCCC[C@H]1C(=O)N(C)[C@@H](CCCC)C(=O)N[C@@H](C)C(=O)N[C@H](C(=O)NCC(N)=O)CSCC(=O)N[C@@H](Cc2ccc(O)cc2)C(=O)N(C)[C@@H](C)C(=O)N[C@@H](CC(N)=O)C(=O)N2CCC[C@H]2C(=O)N[C@@H](Cc2cnc[nH]2)C(=O)N[C@@H](CCC(=O)O)C(=O)N2C[C@H](O)C[C@H]2C(=O)N[C@@H](Cc2c[nH]c3ccccc23)C(=O)N[C@@H](CO)C(=O)N[C@@H](Cc2c[nH]c3ccccc23)C(=O)N1C [Example 1168] |  | 0.385 to 6.74 | 0.158 to 4.71
8 | CCCC[C@H]1C(=O)N(C)[C@@H](CCCC)C(=O)N[C@@H](CCCNC(=N)N)C(=O)N[C@H](C(=O)NCC(N)=O)CSCC(=O)N[C@@H](Cc2ccc(O)cc2)C(=O)N(C)[C@@H](C)C(=O)N[C@@H](CC(N)=O)C(=O)N2CCC[C@H]2C(=O)N[C@@H](Cc2cnc[nH]2)C(=O)N[C@@H](CC(C)C)C(=O)N2CCC[C@H]2C(=O)N[C@@H](Cc2c[nH]c3ccccc23)C(=O)N[C@@H](CO)C(=O)N[C@@H](Cc2c[nH]c3c(C)cccc23)C(=O)N1C [Example 1144] ({CH2CO}-Y[NMeA]NPHLPWS[Trp(7-Me)][NMeNle][NMeNle]RCG-NH2; thioether N-14) |  | > 30.5 | 4.78 to 72.9
9 | CCCC[C@H]1C(=O)N(C)[C@@H](CCCC)C(=O)N[C@@H](CCCNC(=N)N)C(=O)N[C@H](C(=O)NCC(N)=O)CSCC(=O)N[C@@H](Cc2ccccc2)C(=O)N(C)[C@@H](C)C(=O)N[C@@H](CC(N)=O)C(=O)N2CCC[C@H]2C(=O)N[C@@H](Cc2cnc[nH]2)C(=O)N[C@@H](CC(C)C)C(=O)N(C)CC(=O)N[C@@H](Cc2c[nH]c3ccccc23)C(=O)N[C@H](CO)C(=O)N[C@@H](Cc2c[nH]c3ccccc23)C(=O)N1C [Example 1065] ({CH2CO}-F[NMeA]NPHL[Sar]W[dS]W[NMeNle][NMeNle]RCG-NH2; thioether N-14) |  | > 30.5 | > 74.3
10 | CCCC[C@H]1C(=O)N(C)[C@@H](COCC)C(=O)N[C@@H](CCCNC(=N)N)C(=O)NC(C(=O)NCC(N)=O)CSCC(=O)N[C@@H](Cc2ccc(O)cc2)C(=O)N(C)[C@@H](C)C(=O)N[C@@H](CC(N)=O)C(=O)N2CCC[C@H]2C(=O)N[C@@H](Cc2cnc[nH]2)C(=O)N[C@@H](CC(C)C)C(=O)N2C[C@H](O)C[C@H]2C(=O)N[C@@H](Cc2c[nH]c3ccccc23)C(=O)N[C@@H](CO)C(=O)N[C@@H](Cc2csc3ccccc23)C(=O)N1C (stereo partly shown) [Example 9042] ({CH2CO}-Y[NMeA]NPHL[Hyp]WS[Bta][NMeNle][NMeS](Et)R[ξC]G-NH2; thioether N-14) | 0.158 to 4.71 | 0.385 to 6.74 | 
11 | CCCC[C@H]1C(=O)N(C)[C@@H](CCCC)C(=O)N[C@@H](CCCNC(=N)N)C(=O)NC(C(=O)NCC(N)=O)CSCC(=O)N[C@@H](Cc2ccc(O)cc2)C(=O)N(C)[C@@H](C)C(=O)N[C@@H](CC(N)=O)C(=O)N2CCC[C@H]2C(=O)N[C@@H](Cc2cnc[nH]2)C(=O)N[C@@H](CO)C(=O)N2C[C@H](O)C[C@H]2C(=O)N[C@@H](Cc2c[nH]c3ccccc23)C(=O)N[C@@H](CO)C(=O)N[C@@H](Cc2c[nH]c3ccccc23)C(=O)N1C (stereo partly shown) [Example 9069] ({CH2CO}-Y[NMeA]NPHS[Hyp]WSW[NMeNle][NMeNle]R[ξC]G-NH2; thioether N-14) | 0.158 to 4.71 | 0.385 to 6.74 | 
12 | CCCC[C@H]1C(=O)N(C)CC(=O)N[C@@H](CC(=O)O)C(=O)N[C@@H](C(C)C)C(=O)N(C)[C@@H](Cc2ccccc2)C(=O)N[C@@H](CC(C)C)C(=O)N(C)CC(=O)N[C@@H](Cc2c[nH]c3ccccc23)C(=O)N[C@@H](Cc2ccc(O)cc2)C(=O)N[C@@H](CC(C)C)C(=O)N[C@H](C(=O)NCC(N)=O)CSCC(=O)N[C@@H](Cc2ccccc2)C(=O)N(C)[C@@H](Cc2ccccc2)C(=O)N1C [Example 3505] (HELM PEPTIDE1{[O=C(C[*:3])[*:2]].F.[meF].[CCCC[C@@H](C(=O)[*:2])N(C)[*:1]].[Sar].D.V.[meF].L.[Sar].W.Y.L.C.G.[am]}$PEPTIDE1,PEPTIDE1,1:R3-14:R3$$$V2.0) | 4.78 to 72.9 | 6.76 to 30.3 | 
13 | CCCC[C@H]1C(=O)N(C)CC(=O)N[C@@H](CC(=O)O)C(=O)N[C@@H](C(C)C)C(=O)N(C)[C@@H](Cc2ccccc2)C(=O)N[C@@H](Cc2ccc(O)cc2)C(=O)N(C)CC(=O)N[C@@H](Cc2csc3ccccc23)C(=O)N[C@@H](Cc2ccc(O)cc2)C(=O)N[C@@H](CC(C)C)C(=O)N[C@H](C(=O)NCC(N)=O)CSCC(=O)N[C@@H](Cc2cccc(F)c2)C(=O)N(C)[C@@H](Cc2ccccc2)C(=O)N1C [Example 3117] ({CH2CO}-[Phe(3-F)][NMeF][NMeNle][Sar]DV[NMeF]Y[Sar][Bta]YLCG-NH2; thioether N-13) |  | 6.76 to 30.3 | 4.78 to 72.9
14 | CCCC[C@H]1C(=O)N(C)[C@@H](CCCC)C(=O)N[C@@H](CCCNC(=N)N)C(=O)N[C@H](C(=O)NCC(N)=O)CSCC(=O)N[C@@H](Cc2ccc(O)cc2)C(=O)N(C)[C@@H](C)C(=O)N[C@@H](CC(N)=O)C(=O)N2CCC[C@H]2C(=O)N[C@@H](Cc2cnc[nH]2)C(=O)N[C@@H](CC(C)C)C(=O)N2CC(F)(F)C[C@H]2C(=O)N[C@@H](Cc2c[nH]c3ccccc23)C(=O)N[C@@H](CO)C(=O)N[C@@H](Cc2csc3ccccc23)C(=O)N1C [Example 1036] ({CH2CO}-Y[NMeA]NPHL[Pro(4,4-F2)]WS[Bta][NMeNle][NMeNle]RCG-NH2; thioether N-14) |  | 6.76 to 30.3 | 0.158 to 4.71
